Patent publication US8192962B2, “Processes for detecting toxic substances” (Daikin Industries, Ltd., priority 2001, dated 2012)

Tested on: Mitochondria-located protein genes
Assay: DNA chip mRNA expression in yeast, mitochondria-located protein genes (Table 2)
Format: cell-based, Saccharomyces cerevisiae S288C
Conditions: cells incubated two hours with the chemical substance
Procedure, shortened: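 Expression change after 2 h toxicant exposure (growth-inhibiting, sub-lethal) of log-phase S. cerevisiae S288C at 25° C. Oligo-dT-purified mRNA was labeled with Cy3-dUTP or Cy5-dUTP and hybridized >12 h at 65° C. to a genome-wide chip; ratio of scanned fluorescence to control.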

SMILES: COc1cc(CNC(=O)CCCCC=CC(C)C)ccc1O [(12), 8-methyl-N-vanillyl-6-nonenamide]
- The level of expressed mRNA in the presence of chemical substance/The level of expressed mRNA in the absence of chemical substance (yeast gene YAL039C): 1.4
- The level of expressed mRNA in the presence of chemical substance/The level of expressed mRNA in the absence of chemical substance (yeast gene YBL022C): 0.9
- The level of expressed mRNA in the presence of chemical substance/The level of expressed mRNA in the absence of chemical substance (yeast gene YBL030C): 0.9
- The level of expressed mRNA in the presence of chemical substance/The level of expressed mRNA in the absence of chemical substance (yeast gene YBL038W): 0.7
- The level of expressed mRNA in the presence of chemical substance/The level of expressed mRNA in the absence of chemical substance (yeast gene YBL099W): 1.0
- The level of expressed mRNA in the presence of chemical substance/The level of expressed mRNA in the absence of chemical substance (yeast gene YBR003W): 0.8
- The level of expressed mRNA in the presence of chemical substance/The level of expressed mRNA in the absence of chemical substance (yeast gene YBR044C): 0.8
- The level of expressed mRNA in the presence of chemical substance/The level of expressed mRNA in the absence of chemical substance (yeast gene YBR091C): 0.8
- The level of expressed mRNA in the presence of chemical substance/The level of expressed mRNA in the absence of chemical substance (yeast gene YBR122C): 0.7
- The level of expressed mRNA in the presence of chemical substance/The level of expressed mRNA in the absence of chemical substance (yeast gene YBR185C): 0.7
- The level of expressed mRNA in the presence of chemical substance/The level of expressed mRNA in the absence of chemical substance (yeast gene YBR221C): 1.3
- The level of expressed mRNA in the presence of chemical substance/The level of expressed mRNA in the absence of chemical substance (yeast gene YBR251W): 1.1
- The level of expressed mRNA in the presence of chemical substance/The level of expressed mRNA in the absence of chemical substance (yeast gene YBR282W): 0.8
- The level of expressed mRNA in the presence of chemical substance/The level of expressed mRNA in the absence of chemical substance (yeast gene YCL057W): 1.0
- The level of expressed mRNA in the presence of chemical substance/The level of expressed mRNA in the absence of chemical substance (yeast gene YCR046C): 1.1
- The level of expressed mRNA in the presence of chemical substance/The level of expressed mRNA in the absence of chemical substance (yeast gene YCR083W): 1.1
- The level of expressed mRNA in the presence of chemical substance/The level of expressed mRNA in the absence of chemical substance (yeast gene YDL067C): 1.0
- The level of expressed mRNA in the presence of chemical substance/The level of expressed mRNA in the absence of chemical substance (yeast gene YDL181W): 0.9
- The level of expressed mRNA in the presence of chemical substance/The level of expressed mRNA in the absence of chemical substance (yeast gene YDL198C): 1.2
- The level of expressed mRNA in the presence of chemical substance/The level of expressed mRNA in the absence of chemical substance (yeast gene YDR079W): 1.1
- The level of expressed mRNA in the presence of chemical substance/The level of expressed mRNA in the absence of chemical substance (yeast gene YDR178W): 1.3
- The level of expressed mRNA in the presence of chemical substance/The level of expressed mRNA in the absence of chemical substance (yeast gene YDR231C): 1.1
- The level of expressed mRNA in the presence of chemical substance/The level of expressed mRNA in the absence of chemical substance (yeast gene YDR258C): 1.8
- The level of expressed mRNA in the presence of chemical substance/The level of expressed mRNA in the absence of chemical substance (yeast gene YDR298C): 1.1
- The level of expressed mRNA in the presence of chemical substance/The level of expressed mRNA in the absence of chemical substance (yeast gene YDR347W): 0.8
- The level of expressed mRNA in the presence of chemical substance/The level of expressed mRNA in the absence of chemical substance (yeast gene YDR377W): 0.9
- The level of expressed mRNA in the presence of chemical substance/The level of expressed mRNA in the absence of chemical substance (yeast gene YDR529C): 0.6
- The level of expressed mRNA in the presence of chemical substance/The level of expressed mRNA in the absence of chemical substance (yeast gene YEL024W): 0.8
- The level of expressed mRNA in the presence of chemical substance/The level of expressed mRNA in the absence of chemical substance (yeast gene YEL039C): 0.6
- The level of expressed mRNA in the presence of chemical substance/The level of expressed mRNA in the absence of chemical substance (yeast gene YER178W): 1.3
- The level of expressed mRNA in the presence of chemical substance/The level of expressed mRNA in the absence of chemical substance (yeast gene YFL016C): 1.0
- The level of expressed mRNA in the presence of chemical substance/The level of expressed mRNA in the absence of chemical substance (yeast gene YGL018C): 1.0
- The level of expressed mRNA in the presence of chemical substance/The level of expressed mRNA in the absence of chemical substance (yeast gene YGL187C): 0.8
- The level of expressed mRNA in the presence of chemical substance/The level of expressed mRNA in the absence of chemical substance (yeast gene YGL191W): 0.9
- The level of expressed mRNA in the presence of chemical substance/The level of expressed mRNA in the absence of chemical substance (yeast gene YGR008C): 2.0
- The level of expressed mRNA in the presence of chemical substance/The level of expressed mRNA in the absence of chemical substance (yeast gene YGR028W): 1.5
- The level of expressed mRNA in the presence of chemical substance/The level of expressed mRNA in the absence of chemical substance (yeast gene YGR062C): 1.0
- The level of expressed mRNA in the presence of chemical substance/The level of expressed mRNA in the absence of chemical substance (yeast gene YGR076C): 1.0
- The level of expressed mRNA in the presence of chemical substance/The level of expressed mRNA in the absence of chemical substance (yeast gene YGR082W): 0.8
- The level of expressed mRNA in the presence of chemical substance/The level of expressed mRNA in the absence of chemical substance (yeast gene YGR174C): 0.9
- The level of expressed mRNA in the presence of chemical substance/The level of expressed mRNA in the absence of chemical substance (yeast gene YGR244C): 1.9
- The level of expressed mRNA in the presence of chemical substance/The level of expressed mRNA in the absence of chemical substance (yeast gene YHR008C): 0.7
- The level of expressed mRNA in the presence of chemical substance/The level of expressed mRNA in the absence of chemical substance (yeast gene YIL155C): 1.4
- The level of expressed mRNA in the presence of chemical substance/The level of expressed mRNA in the absence of chemical substance (yeast gene YJL096W): 1.0
- The level of expressed mRNA in the presence of chemical substance/The level of expressed mRNA in the absence of chemical substance (yeast gene YJL102W): 0.8
- The level of expressed mRNA in the presence of chemical substance/The level of expressed mRNA in the absence of chemical substance (yeast gene YJL133W): 0.8
- The level of expressed mRNA in the presence of chemical substance/The level of expressed mRNA in the absence of chemical substance (yeast gene YJL166W): 0.7
- The level of expressed mRNA in the presence of chemical substance/The level of expressed mRNA in the absence of chemical substance (yeast gene YJL180C): 0.8
- The level of expressed mRNA in the presence of chemical substance/The level of expressed mRNA in the absence of chemical substance (yeast gene YJR045C): 1.0
- The level of expressed mRNA in the presence of chemical substance/The level of expressed mRNA in the absence of chemical substance (yeast gene YJR077C): 1.0
